Biological target: T1, P. falciparum glutathione reductase (PfGR) (Plasmodium falciparum, UniProt Q94655)
T1 construct: gene GR; 2 x 55 kD homodimer with FAD
Assay: NADPH oxidation at […] nm, Cleland plot ([…]/kcat vs [I])
Assay type: biochemical

T1 sequence (Q94655 2-500): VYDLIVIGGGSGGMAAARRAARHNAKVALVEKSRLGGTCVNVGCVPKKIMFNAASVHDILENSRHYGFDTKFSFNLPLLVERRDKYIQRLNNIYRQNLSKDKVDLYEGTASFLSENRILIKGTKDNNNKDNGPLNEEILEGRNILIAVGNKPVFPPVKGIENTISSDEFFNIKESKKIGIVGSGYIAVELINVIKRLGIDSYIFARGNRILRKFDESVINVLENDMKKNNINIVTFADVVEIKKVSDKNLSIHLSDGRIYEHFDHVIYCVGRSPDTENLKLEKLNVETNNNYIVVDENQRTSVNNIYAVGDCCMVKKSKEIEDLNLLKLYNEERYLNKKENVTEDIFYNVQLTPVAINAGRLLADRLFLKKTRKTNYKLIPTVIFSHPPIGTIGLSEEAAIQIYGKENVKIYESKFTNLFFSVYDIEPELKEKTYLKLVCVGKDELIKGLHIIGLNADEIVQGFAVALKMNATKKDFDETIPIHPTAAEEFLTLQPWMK

SMILES	Ki [µM]
O=C(O)c1ccc([N+](=O)[O-])cc1 [compound 2, 4-Nitrobenzoic acid]	1200 ± 180
O=[N+]([O-])c1ccc(/C=N/O)o1 [compound 11, Nifuroxime]	32 ± 5
CC(=O)c1ccc([N+](=O)[O-])cc1 [compound 4, 4-Nitroacetophenone]	70 ± 11
O=C1CN(/N=C/c2ccc([N+](=O)[O-])o2)C(=O)N1 [compound 10, Nitrofurantoin]	9 ± 1
O=Cc1ccc([N+](=O)[O-])cc1 [compound 7, 4-Nitrobenzaldehyde]	25 ± 4

Biological target: T1, P. falciparum glutathione reductase (PfGR)
Assay: GSH-mediated DTNB reduction at […] nm, Cleland plot
Assay type: biochemical

SMILES	Ki [µM]
NC(=O)c1cc(N2CC2)c([N+](=O)[O-])cc1[N+](=O)[O-] [compound 3, 5-(Aziridin-1-yl)-2,4-dinitrobenzamide]	350 ± 40

Source: PMC6943496, “Antiplasmodial Activity of Nitroaromatic Compounds: Correlation with Their Reduction Potential and Inhibitory Action on Plasmodium falciparum Glutathione Reductase” (Molecules, 2019)
